Consider one compound from PubChem BioAssay (NCI).

Among the test systems are A549 NSCLC; HOP-62 NSCLC; SK-MEL-5 melanoma; TK-10 renal; DMS 114 small cell lung; LOX IMVI melanoma; U251 CNS; HS 578T breast; SK-MEL-28 melanoma; UO-31 renal; DLD-1 colon; NCI-H460 lung; NCI-H23 lung; P388 leukemia; 786-0 renal; NCI-H522 lung.
Assay in all cases: NCI tumour cell line growth inhibition, 48 h

Each structure is given as a SMILES string. Several values for one entry are separate records, joined by “and”; a condition that tells them apart may be missing. Equal values may be shown once.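 Compound exposure: 48 hours, 5 concentrations, 96-well plates. GI50 marks 50% less growth. TGI denotes the concentration required for complete inhibition of growth.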

As for `COc1ccc2c(c1)c1c(C)c3cnccc3c(C)c1n2CCCN`, the GI50 in the test with A549 NSCLC was 18.6 nM; with HOP-62 NSCLC it was 18.7 nM; in the test with SK-MEL-5 melanoma, 282 nM; with U251 CNS it was 171 nM and 34 nM; in the test with UO-31 renal it was 12.5 nM; with NCI-H460 lung it was 19.9 nM. Also, the GI50 in the test on NCI-H522 lung was 85.3 nM. For the same compound, the TGI in the test with HOP-62 NSCLC is 984 nM and 279 nM; in the test with SK-MEL-5 melanoma it was 746 nM and 1060 nM; in the test on TK-10 renal it was 2750 nM; with DMS 114 small cell lung it was 669 nM; in the test with LOX IMVI melanoma it was 241 nM; in the test on U251 CNS, 721 nM and 383 nM. Besides, the TGI is 953 nM in the test on HS 578T breast; 892 nM and 1100 nM in the test with SK-MEL-28 melanoma; 1360 nM and 168 nM in the test on UO-31 renal; 741 nM in the test on DLD-1 colon; 282 nM and 135 nM with NCI-H460 lung; 601 nM in the test on NCI-H23 lung. Moreover, the TGI is 98.7 nM with P388 leukemia; 634 nM in the test with 786-0 renal; 763 nM and 242 nM in the test with NCI-H522 lung.
